The test system of this assay is infected macrophages. The assay can be described thus: in vitro activity relative to infected macrophages, microcrystals containing cholesterol. The format is cell-based.

Values after ≈ are worked out from the molar mass of the structure shown.

With `C[C@@H]1[C@H](O)[C@@H](C)/C=C/C=C/C=C/C=C/C=C/C=C/C=C/[C@H](O[C@@H]2O[C@H](C)[C@@H](O)[C@H](N)[C@@H]2O)C[C@@H]2O[C@](O)(C[C@@H](O)C[C@@H](O)[C@H](O)CC[C@@H](O)C[C@@H](O)CC(=O)O[C@H]1C)C[C@H](O)[C@H]2C(=O)O` [control amphotericin B, amphotericin B], the “MIC on infected macrophages” value turned out to be 0.4 µM (≈ 0.37 µg/mL).
